Assay results taken from patent publication US20150328377A1, “COMPOSITION OF D-ALPHA HYDROXY ACIDS AND ANTIMICROBIALS” (BACTERIN INTERNATIONAL, INC., priority 2012, published 2015).
“And” between values parts separate entries of the source, which are not always exact repeats. Equal entries are not always repeated.

Tested on: S. aureus
Assay: microplate biofilm formation assay (crystal violet)
Assay type: cell-based
Parameters: key to Relative Biofilm Score: crystal violet conc. / non-treated control conc. (1 = control)
Description: The synergy between a D-alpha hydroxy acid and an antimicrobial agent was determined through a standard microplate biofilm formation assay (Antimicrob Agents Chemother. 2009, 53, 4159-4166—which is incorporated in its entirety by reference). […] Before incubation each well received about 0, about 2, about 20, or about 200 μg/mL L- or D-lactic acids and about 0.0 or about 0.5 μg/mL chlorhexidine (CHX). The plates were incubated for approximately 20 hours at about 37° C. and then the supernatant of the wells was removed. Each well was gently washed 3 times with phosphate buffered saline, and the biofilm was fixed by incubating the plates at about 60° C. for about 1 hour. The biofilm was then stained by incubating at about 37° C. in about 100 μL about 0.5% crystal violet for about 20 minutes. The plates were then thoroughly rinsed with tap water to remove any excess crystal violet and dried. The residual crystal violet was then extracted with about 200 μL of about 33% acetic acid. About 150 μL of the about 33% acetic acid extractant was then diluted with about 2000 μL acetonitrile and the quantity of crystal violet was determined by measuring the absorbance of the resulting solution at about 590 nanometers. The concentration of crystal violet is directly proportional to the amount of biofilm formation in each well. Each set of concentrations was measured at least four times. The average crystal violet concentration was divided by the average crystal violet concentration for a non-treated control (about 0.0 μg/mL CHX and about 0.0 μg/mL lactic acid) to obtain a relative biofilm formation score. In the same manner as Example 1, the synergy between a D-alpha hydroxy acid and the combination of rifampin and minocycline was determined. […] Before incubation each well received about 0 μg/mL or about 200 μg/mL of L- or D-lactic acid and about 0 ng/mL or about 5 ng/mL each of rifampin and minocycline. The plates were incubated for about 20 hours at about 37° C. and then the supernatant of the wells was removed. The quantity of biofilm formation in each well was determined using the protocol detailed in Example 1.

[1] = 2 μg/mL lactic acid combined with 0.5 μg/mL CHX
[2] = 2 μg/mL lactic acid, 0.0 μg/mL CHX
[3] = 20 μg/mL lactic acid combined with 0.5 μg/mL CHX
[4] = 20 μg/mL lactic acid, 0.0 μg/mL CHX
[5] = 200 μg/mL lactic acid combined with 5.0 ng/mL Rif/Min, Table 2
[6] = 200 μg/mL lactic acid combined with 0.5 μg/mL CHX
[7] = 200 μg/mL lactic acid, 0.0 μg/mL CHX
[8] = 200 μg/mL lactic acid, 0.0 ng/mL Rif/Min, Table 2

| Structure (SMILES) | Relative Biofilm Score (0.5 μg/mL CHX alone (0 μg/mL lactic acid), relative to non-treated control, values approximate) | Relative Biofilm Score [1] | Relative Biofilm Score [2] | Relative Biofilm Score [3] | Relative Biofilm Score [4] | Relative Biofilm Score [5] | Relative Biofilm Score [6] | Relative Biofilm Score [7] | Relative Biofilm Score [8] | effect on biofilm formation (combined with chlorhexidine, not by itself) | effect on biofilm formation (combined with rifampin and minocycline, not by itself) | effect on biofilm formation (alone or in combination with chlorhexidine at any concentration) | effect on biofilm formation (by itself or combined with rifampin and minocycline) |
| --- | --- | --- | --- | --- | --- | --- | --- | --- | --- | --- | --- | --- | --- |
| [H]/N=C(\N/C(=N/[H])NCCCCCCNC(=N)NC(=N)Nc1ccc(Cl)cc1)Nc1ccc(Cl)cc1 [CHX, chlorhexidine] | 0.26 ± 0.04 and 0.26 ± 0.05 |  |  |  |  |  |  |  |  |  |  |  |  |
| C[C@@H](O)C(=O)O [D-Lactic Acid, D-lactic acid] |  | 0.19 ± 0.03 | 1.07 ± 0.24 | 0.12 ± 0.03 | 1.11 ± 0.17 | 0.27 ± 0.04 | 0.04 ± 0.01 | 1.10 ± 0.20 | 0.92 ± 0.24 | statistically significant dose dependent decrease in biofilm formation | statistically significant decrease in biofilm formation |  |  |
| C[C@H](O)C(=O)O [L-Lactic Acid, L-lactic acid] |  | 0.23 ± 0.05 | 1.01 ± 0.20 | 0.33 ± 0.08 | 1.06 ± 0.18 | 0.43 ± 0.03 | 0.27 ± 0.07 | 1.16 ± 0.18 | 1.04 ± 0.15 |  |  | did not show any statistically significant effects on biofilm formation | did not show any reduction in biofilm formation |
